# Test results published in patent US12319676B2, “Substituted amide compounds useful as farnesoid X receptor modulators” (BRISTOL-MYERS SQUIBB COMPANY, priority 2019, dated 2025).
# Target: T1, human FXR (Homo sapiens, UniProt Q96RI1)
# T1 construct: expressed in transfected cells; host or cells: HEK293 cells stably carrying a 5xGal4 response element-luciferase reporter, transiently transfected with pcDNA3.1-Gal4-FXR
# T1 sequence (Q96RI1 262-486 limits assumed): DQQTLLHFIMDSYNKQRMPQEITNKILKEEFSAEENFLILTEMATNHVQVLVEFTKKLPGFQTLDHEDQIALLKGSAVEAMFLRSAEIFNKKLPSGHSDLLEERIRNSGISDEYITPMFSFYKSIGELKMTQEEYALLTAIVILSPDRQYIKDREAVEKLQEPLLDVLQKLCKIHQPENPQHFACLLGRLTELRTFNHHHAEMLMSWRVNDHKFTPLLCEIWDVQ
# Assay: transient human FXR/Gal4-luciferase reporter assay
# Type: cell-based
# Settings: Gal4-hFXR fusion construct, luciferase reporter in HEK293 cells; overnight incubation; response as percentage of 8 μM GW-4064 control
# Protocol: The exemplified compounds of the present invention were tested in the transient human FXR/Gal4-luciferase reporter assay, and assay results were reported in Table 1 and Examples 1 to 3 together with other analytical data. A Gal4-hFXR fusion construct reporter system was used as the primary assay to characterize compound activity. A construct including 5 copies of the Gal4 promoter response element upstream of a firefly luciferase reporter cDNA was stably expressed in HEK293 cells. This reporter cell line was maintained in Dulbecco's Modified Eagle's medium (DMEM; Gibco) supplemented with 1% penicillin-streptomycin (P/S) solution, 500 μg/mL Zeocin and 10% charcoal/dextran-treated fetal bovine serum (cs-FBS) at 37° C. in a humidified 5% CO2 atmosphere. Another plasmid was constructed in which the human cytomegalovirus promoter in the pcDNA3.1 vector directs the expression of the cDNA encoding a fusion protein comprised of the DNA binding domain from the Gal4 transcription factor fused to the ligand binding domain from human FXR. The day prior to transfection, the reporter cells in culture are detached from the plate with trypsin and plated into a T75 flask at a sufficient density to achieve approximately 90% confluence the next morning. The transfection reagents are prepared by separately diluting 25 μg of the pcDNA3.1-Gal4-FXR plasmid into 1.87 mL of Opti-MEM (Thermo-Fisher), and 40 μL of Lipofectamine 2000 (Thermo-Fisher) into 1.87 mL of Opti-MEM, and then adding the diluted DNA solution into the diluted Lipofectamine 2000 solution and incubating at room temperature for 15-20 minutes. The mixture is further diluted with 10 mL of a solution comprised of DMEM, 10% cs-FBS, and 1% P/S immediately prior to transferring to the cells. The maintenance culture media is aspirated from the cells and the final transfection mixture is added before the cells are incubated overnight at 37° C. in a humidified 5% CO2 atmosphere. This protocol can be scaled up, and the transiently transfected cells can be cryopreserved in an assay-ready format. For compound testing, 100 nL of the compounds (serial dilutions in DMSO) are dispensed with an Echo acoustic dispenser (Labcyte) into the wells of a Corning/Costar clear bottom 384-well white plate. The transfected cells are harvested, counted, and diluted such that 10-25,000 cells in 25 μL are plated into each well of the 384-well compound assay plate. The compound-treated cells are incubated overnight at 37° C. in a humidified 5% CO2 atmosphere. The next morning 25 μL of Steady-Glo (Promega) are added to each well of the plate, the mixture is incubated for 15 min. with shaking, and luminescence is measured on an Envision (Perkin Elmer) plate reader. Background counts from cells treated with DMSO alone are subtracted from all raw counts, and the corrected values are converted to a percentage of the control response attained with 8 μM GW-4064.
row,Structure (SMILES),EC50 [nM]
1,"CC(F)(F)c1nc(C23CCC(CN(C(=O)C4CC4(F)F)c4cccc(Br)c4)(CC2)CC3)no1 (racemic) [Example 31, N-(3-bromophenyl)-N-((4-(5-(1,1-difluoroethyl)-1,2,4-oxadiazol-3-yl)bicyclo[2.2.2]octan-1-yl)methyl)-2,2-difluorocyclopropane-1-carboxamide]",261
2,"CC(F)(F)c1nc(C23CCC(CN(C(=O)C45CC(F)(C4)C5)c4cccc(Cl)c4)(CC2)CC3)no1 [Example 1, N-(3-chlorophenyl)-N-((4-(5-(1,1-difluoroethyl)-1,2,4-oxadiazol-3-yl)bicyclo[2.2.2]octan-1-yl)methyl)-3-fluorobicyclo[1.1.1]pentane-1-carboxamide]",11
3,"CC(F)(F)c1nc(C23CCC(CN(c4cccc(Cl)c4)C(=O)[C@H]4C[C@](O)(C(F)(F)F)C4)(CC2)CC3)no1 [Example 2, N-(3-chlorophenyl)-N-((4-(5-(1,1-difluoroethyl)-1,2,4-oxadiazol-3-yl)bicyclo[2.2.2]octan-1-yl)methyl)-3-hydroxy-3-(trifluoromethyl)cyclobutane-1-carboxamide]",64
4,"CC(F)(F)c1nc(C23CCC(CN(C(=O)C4CCC(F)(F)CC4)c4cccc(Cl)c4)(CC2)CC3)no1 [Example 3, N-(3-chlorophenyl)-N-((4-(5-(1,1-difluoroethyl)-1,2,4-oxadiazol-3-yl)bicyclo[2.2.2]octan-1-yl)methyl)-4,4-difluorocyclohexane-1-carboxamide]",133
5,"CC(F)(F)c1nc(C23CCC(CN(C(=O)C45CC(F)(C4)C5)c4cccc(C#N)c4)(CC2)CC3)no1 [Example 4, N-(3-cyanophenyl)-N-((4-(5-(1,1-difluoroethyl)-1,2,4-oxadiazol-3-yl)bicyclo[2.2.2]octan-1-yl)methyl)-3-fluorobicyclo[1.1.1]pentane-1-carboxamide]",12
6,"CC(F)(F)c1nc(C23CCC(CN(C(=O)C4CC(O)(C(F)(F)F)C4)c4cccc(C#N)c4)(CC2)CC3)no1 (centres unmarked) [Example 5, N-(3-cyanophenyl)-N-((4-(5-(1,1-difluoroethyl)-1,2,4-oxadiazol-3-yl)bicyclo[2.2.2]octan-1-yl)methyl)-3-hydroxy-3-(trifluoromethyl)cyclobutane-1-carboxamide]",164
7,"CC(F)(F)c1nc(C23CCC(CN(C(=O)C4CCC(F)(F)CC4)c4cccc(C#N)c4)(CC2)CC3)no1 [Example 6, N-(3-cyanophenyl)-N-((4-(5-(1,1-difluoroethyl)-1,2,4-oxadiazol-3-yl)bicyclo[2.2.2]octan-1-yl)methyl)-4,4-difluorocyclohexane-1-carboxamide]",106
8,"CC(F)(F)c1nc(C23CCC(CN(C(=O)C45CC(F)(C4)C5)c4cccc(F)c4)(CC2)CC3)no1 [Example 7, N-((4-(5-(1,1-difluoroethyl)-1,2,4-oxadiazol-3-yl)bicyclo[2.2.2]octan-1-yl)methyl)-3-fluoro-N-(3-fluorophenyl)bicyclo[1.1.1]pentane-1-carboxamide]",30
9,"CC(F)(F)c1nc(C23CCC(CN(c4cccc(F)c4)C(=O)[C@H]4C[C@](O)(C(F)(F)F)C4)(CC2)CC3)no1 [Example 8, N-((4-(5-(1,1-difluoroethyl)-1,2,4-oxadiazol-3-yl)bicyclo[2.2.2]octan-1-yl)methyl)-N-(3-fluorophenyl)-3-hydroxy-3-(trifluoromethyl)cyclobutane-1-carboxamide]",462
10,"CC(F)(F)c1nc(C23CCC(CN(C(=O)C4CCC(F)(F)CC4)c4cccc(F)c4)(CC2)CC3)no1 [Example 9, N-((4-(5-(1,1-difluoroethyl)-1,2,4-oxadiazol-3-yl)bicyclo[2.2.2]octan-1-yl)methyl)-4,4-difluoro-N-(3-fluorophenyl)cyclohexane-1-carboxamide]",451
11,"CC(F)(F)c1nc(C23CCC(CN(C(=O)C45CC(F)(C4)C5)c4ccc(F)c(F)c4)(CC2)CC3)no1 [Example 10, N-((4-(5-(1,1-difluoroethyl)-1,2,4-oxadiazol-3-yl)bicyclo[2.2.2]octan-1-yl)methyl)-N-(3,4-difluorophenyl)-3-fluorobicyclo[1.1.1]pentane-1-carboxamide]",124
